According to EP1235797B1, “ARALKYL-1,2-DIAMINES HAVING CALCIMIMETIC ACTIVITY AND PREPARATION MODE” (CENTRE NATIONAL DE LA RECHERCHE SCIENTIFIQUE (CNRS), priority 1999, dated 2001):

Legend:
CaSR de rat = target: T1, CaSR de rat (Rattus norvegicus, UniProt P48442); assay: Accumulation of tritiated inositol phosphates ([3H]IP) in transfected CHO(CaSR) cells; type: cell-based; conditions: compound 10 µM; for activation at 10 µM: read-out: Accumulation d'(^3H)-IP % de la réponse 10mM Ca^2+ ± E.S.; for Accumulation d'(^3H)-IP % du taux basal. CHO (CaSR) / activity at 10 µM: basal level in presence of 2 mM Ca^2+ = 100 %; for activity at 10 µM: read-out: Accumulation d'(^3H)-IP % du taux basal. CHO (CaSR)
T1 construct: expressed in transfected cells; host or cells: CHO (Chinese hamster ovary) cells, line CHO(CaSR)
T1 sequence (P48442 20-1079): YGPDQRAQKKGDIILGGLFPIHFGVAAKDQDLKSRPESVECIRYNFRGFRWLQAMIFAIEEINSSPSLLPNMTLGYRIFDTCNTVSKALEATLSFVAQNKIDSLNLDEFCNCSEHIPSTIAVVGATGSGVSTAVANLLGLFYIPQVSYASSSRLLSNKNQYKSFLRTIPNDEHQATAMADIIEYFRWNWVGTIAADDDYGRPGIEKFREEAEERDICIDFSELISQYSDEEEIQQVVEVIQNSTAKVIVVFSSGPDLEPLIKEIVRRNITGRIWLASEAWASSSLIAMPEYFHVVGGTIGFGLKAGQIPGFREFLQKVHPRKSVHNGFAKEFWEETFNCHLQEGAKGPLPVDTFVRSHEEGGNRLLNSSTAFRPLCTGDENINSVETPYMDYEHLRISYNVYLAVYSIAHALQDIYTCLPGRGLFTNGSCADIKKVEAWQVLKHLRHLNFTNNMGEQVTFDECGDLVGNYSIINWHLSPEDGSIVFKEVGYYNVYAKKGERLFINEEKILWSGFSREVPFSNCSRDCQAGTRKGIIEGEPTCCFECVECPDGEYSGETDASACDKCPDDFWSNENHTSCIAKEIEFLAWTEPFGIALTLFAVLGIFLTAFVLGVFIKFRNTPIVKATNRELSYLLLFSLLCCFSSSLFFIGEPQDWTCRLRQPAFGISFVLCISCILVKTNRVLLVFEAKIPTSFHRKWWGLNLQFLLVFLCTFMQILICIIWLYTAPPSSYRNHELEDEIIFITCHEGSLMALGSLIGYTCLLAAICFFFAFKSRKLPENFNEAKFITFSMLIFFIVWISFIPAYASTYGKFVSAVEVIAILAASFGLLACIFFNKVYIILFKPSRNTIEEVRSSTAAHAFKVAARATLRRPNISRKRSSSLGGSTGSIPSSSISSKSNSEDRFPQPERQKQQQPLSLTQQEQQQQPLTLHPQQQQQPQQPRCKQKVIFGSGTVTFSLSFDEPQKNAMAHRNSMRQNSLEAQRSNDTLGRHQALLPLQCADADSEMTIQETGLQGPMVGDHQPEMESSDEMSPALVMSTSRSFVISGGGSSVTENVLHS
Text: L'ADN complémentaire codant pour le CaSR de rat a été isolé à partir d'une banque ADNc de striatum de rat (Ruat et al, Proc. Natl. Acad. Sci., 1995). Ce récepteur est identique au niveau de sa séquence en acides aminés à celui exprimé dans les autres tissus. Des cellules ovariennes de hamster chinois (CHO) transfectées exprimant le CaSR de rat (CHO(CaSR)) ont été caractérisées et les signaux chimiques (seconds messagers) induits par l'activation de ce récepteur ont été analysés. Ainsi, un test biochimique permettant de mesurer l'accumulation d'inositols phosphates tritiés [^3H]IP en réponse à l'activation du récepteur a été mis au point (Ruat et al, J. Biol. Chem., 1996; Ferry et al, Biochem. Biophys. Res. Commun., 1997).
L'activité calcimimétique des composés a été estimée en mesurant l'accumulation d'inositols phosphates tritiés induite par 10 µM de chacun des composés en présence de 2 mM de Ca^2+ dans les cellules CHO(CaSR) (Ferry et al, Biochem Biophys Res Commun, 1997).
Cette activation a été comparée à celle induite par le composé NPS-R- 568, un calcimimétique de référence et utilisé à une concentration de 10 µM (Tableau 1) (Ferry et al, Biochem Biophys Res Commun, 1997; Nemeth et al, Proc Natl Acad Sci USA, 1997).
Dans le tableau 1, l'activité calcimimétique des composés PHD est comparée à celle d'un composé de référence, le NPS-R-568 utilisé à la même concentration et dans les mêmes conditions expérimentales. Cette activité est exprimée en pourcentage de l'activité de 10 mM de Ca^2+. Les moyennes ± erreurs standards de 2 à 5 manipulations indépendantes sont indiquées. Les expériences ont été réalisées en présence de 2 mM de Ca^2+.
(§1) L'accumulation d'inositols phosphates tritiés est exprimée en pourcentage du taux de base observé en présence de 2 mM Ca^2+ (100 %) dans les cellules CHO(WT*) ou CHO(CaSR).

cellules CHO(WT*) = assay: Specificity control: [3H]IP accumulation in CHO(WT*) control cells transfected with the plasmid alone, not expressing CaSR; type: cell-based, hamster chinois; conditions: compound 10 µM, basal level in presence of 2 mM Ca^2+ = 100 %; for activity at 10 µM: read-out: Accumulation d'(^3H)-IP % du taux basal. CHO (WT*)
Description: Les molécules PHD, utilisées à une concentration de 10 µM ne conduisent pas ou peu à l'accumulation d'[^3H]IP dans des cellules CHO(WT*) témoins ce qui suggère leur spécificité d'action vis-à-vis du CaSR (Tableau 2). Les cellules CHO(WT*) ont été tranfectées avec le plasmide seul et n'expriment pas le CaSR.
as §1

[1] = in presence of 2 mM Ca^2+, mean ± standard error of 2 to 5 independent experiments

SMILES | activation at 10 µM (CaSR de rat; [1]) | also measured
C[C@@H](NCC(Cc1ccccc1)NS(=O)(=O)c1ccc([N+](=O)[O-])cc1)c1ccccc1 (single isomer, unassigned) [PHD 127 A] | 12 ± 5% | 
C[C@@H](NCC(Cc1ccccc1)NS(=O)(=O)c1ccc([N+](=O)[O-])cc1)c1ccccc1 (single isomer, unassigned) [PHD 127 B] |  | Accumulation d'(^3H)-IP % de la réponse 10mM Ca^2+ ± E.S. (CaSR de rat; [1]): 13 ± 3%
Cc1ccc(S(=O)(=O)NC(CNC(C)c2cccc3ccccc23)c2ccccc2)cc1 (stereo not drawn) [PHD 176 B] | 31 ± 3% | 
CC(NCC(Cc1ccccc1)NS(C)(=O)=O)c1cccc2ccccc12 (stereo not drawn) [PHD 322] | 57 ± 6% | 
CC(NCC(Cc1ccccc1)NS(=O)(=O)c1cccc2ccccc12)c1cccc2ccccc12 (stereo not drawn) [PHD 319] | 31 ± 7% | 
CC(NCC(Cc1ccccc1)NS(=O)(=O)c1ccccc1C(F)(F)F)c1cccc2ccccc12 (stereo not drawn) [PHD 306] | 48 ± 9% | 
CC(NCC(Cc1ccccc1)NS(=O)(=O)c1cccc(Cl)c1)c1cccc2ccccc12 (stereo not drawn) [PHD 308] | 83 ± 4% | Accumulation d'(^3H)-IP % du taux basal. CHO (WT*) (cellules CHO(WT*)): peu ou pas d'accumulation; activity at 10 µM (cellules CHO(WT*)): 124 ± 9%; Accumulation d'(^3H)-IP % du taux basal. CHO (CaSR) (CaSR de rat): une forte accumulation; activity at 10 µM (CaSR de rat): 314 ± 13%
Cc1ccc(S(=O)(=O)NC(CNC(C)c2cccc3ccccc23)Cc2ccccc2)cc1 (stereo not drawn) [PHD 181] | 68 ± 9% | 
CC(NCC(Cc1ccccc1)NCc1ccccc1F)c1cccc2ccccc12 (stereo not drawn) [PHD 323] | 90 ± 8% | 
COc1ccc(S(=O)(=O)NC(CNC(C)c2cccc3ccccc23)Cc2ccc3c(c2)OCO3)cc1 (stereo not drawn) [PHD 271] | 47 ± 2% | 
COc1ccc(S(=O)(=O)NC(C)CNC(C)c2cccc3ccccc23)cc1 (stereo not drawn) [PHD 280] | 30 ± 2% | 
COc1ccc(S(=O)(=O)NC(CNC(C)c2cccc3ccccc23)Cc2ccccc2Cl)cc1 (stereo not drawn) [PHD 242] | 60 ± 4% | 
CC(NCC(Cc1ccccc1)NS(=O)(=O)c1ccc(N)cc1)c1ccccc1 (stereo not drawn) [PHD 125] | 2 ± 4% | 
CC(NCC(Cc1ccccc1)NS(=O)(=O)c1ccc(C(F)(F)F)cc1)c1cccc2ccccc12 (stereo not drawn) [PHD 304] | 29 ± 2% | 
CC(NCC(Cc1ccccc1)NS(=O)(=O)c1ccccc1)c1cccc2ccccc12 (stereo not drawn) [PHD 202] | 78 ± 10% | 
COc1cccc([C@@H](C)NC(CNS(=O)(=O)c2ccc(C)cc2)c2ccccc2)c1 (stereo partly drawn) [PHD 178 A] | 6 ± 6% | 
CC(NCC(Cc1ccccc1)NCc1ccc(F)cc1)c1cccc2ccccc12 (stereo not drawn) [PHD 320] | 95 ± 4% | 
CC(NCC(N)Cc1ccccc1)c1ccccc1 (stereo not drawn) [PHD 90] | 3 ± 2% | 
CC(NCC(Cc1ccccc1)NS(=O)(=O)c1cccs1)c1cccc2ccccc12 (stereo not drawn) [PHD 316] | 78 ± 1% | 
CC(NCC(Cc1ccccc1)NCc1ccccc1Cl)c1cccc2ccccc12 (stereo not drawn) [PHD 307, N^2-(2-Chlorobenzyl)-N^1-[1-(1-naphtyl)éthyl]-3-phénylpropane-1,2-diamine] | 98 ± 8% | Accumulation d'(^3H)-IP % du taux basal. CHO (WT*) (cellules CHO(WT*)): peu ou pas d'accumulation; activity at 10 µM (cellules CHO(WT*)): 134 ± 11%; Accumulation d'(^3H)-IP % du taux basal. CHO (CaSR) (CaSR de rat): une forte accumulation; activity at 10 µM (CaSR de rat): 393 ± 28%

SMILES | activation at 10 µM (CaSR de rat; [1]) | also measured
COc1ccc(CC(CNC(C)c2cccc3ccccc23)NS(=O)(=O)c2ccc(OC)cc2)cc1 (stereo not drawn) [PHD 267] | 45 ± 1% | 
COc1cccc([C@@H](C)NCC(Cc2ccccc2)NS(=O)(=O)c2ccc(C)cc2)c1 (stereo partly drawn) [PHD 182] | 36 ± 12% | 
COc1ccc(S(=O)(=O)NC(CNC(C)c2cccc3ccccc23)Cc2ccccc2)cc1 (stereo not drawn) [PHD 206] | 80 ± 12% | 
Cc1ccc(S(=O)(=O)NC(CNC(C)c2ccccc2)Cc2ccccc2)cc1 (stereo not drawn) [PHD 121] | 23 ± 15% | 
CC(NCC(Cc1ccccc1)NS(=O)(=O)c1ccc([N+](=O)[O-])cc1)c1ccccc1 (stereo not drawn) [PHD 87] | 8 ± 4% | 
COc1ccc(S(=O)(=O)NC(CNC(C)c2cccc3ccccc23)Cc2cccc(C)c2OC)cc1 (stereo not drawn) [PHD 235] | 37 ± 5% | 
COc1ccc(S(=O)(=O)NC(CNC(C)c2cccc3ccccc23)Cc2ccccc2)cc1OC (stereo not drawn) [PHD 321, N^2(3,4-diméthoxybenzènesulfonyl)-N^1[1-(1-naphtyl)éthyl]-3-phénylpropane-1,2-diamine] | 97 ± 13% | Accumulation d'(^3H)-IP % du taux basal. CHO (WT*) (cellules CHO(WT*)): peu ou pas d'accumulation; activity at 10 µM (cellules CHO(WT*)): 124 ± 4%; Accumulation d'(^3H)-IP % du taux basal. CHO (CaSR) (CaSR de rat): une forte accumulation; activity at 10 µM (CaSR de rat): 446 ± 22%
CC(NCC(Cc1ccccc1)NCc1ccccc1)c1cccc2ccccc12 (stereo not drawn) [PHD 285] | 80 ± 8% | 
CC(NCC(Cc1ccccc1)NS(=O)(=O)c1ccc(Cl)cc1)c1cccc2ccccc12 (stereo not drawn) [PHD 203] | 38 ± 20% | 
COc1ccc(S(=O)(=O)NC(CN[C@H](C)c2cccc(OC)c2)Cc2ccccc2)cc1 (stereo partly drawn) [PHD 217] | 34 ± 5% | 
CC(NCC(Cc1ccccc1)NS(=O)(=O)c1ccccc1Cl)c1cccc2ccccc12 (stereo not drawn) [PHD 301] | 79 ± 10% | Accumulation d'(^3H)-IP % du taux basal. CHO (WT*) (cellules CHO(WT*)): peu ou pas d'accumulation; activity at 10 µM (cellules CHO(WT*)): 119 ± 6%; Accumulation d'(^3H)-IP % du taux basal. CHO (CaSR) (CaSR de rat): une forte accumulation; activity at 10 µM (CaSR de rat): 304 ± 18%
CC(NCC(Cc1ccccc1)NS(=O)(=O)c1ccc2ccccc2c1)c1cccc2ccccc12 (stereo not drawn) [PHD 318] | 34 ± 2% | 
Cc1ccc(S(=O)(=O)NCC(NC(C)c2cccc3ccccc23)c2ccccc2)cc1 (stereo not drawn) [PHD 176 A] | 6 ± 1% | 
CC(NCC(Cc1ccccc1)NCc1cccc(Cl)c1)c1cccc2ccccc12 (stereo not drawn) [PHD 312] | 78 ± 6% | Accumulation d'(^3H)-IP % du taux basal. CHO (WT*) (cellules CHO(WT*)): peu ou pas d'accumulation; activity at 10 µM (cellules CHO(WT*)): 121 ± 6%; Accumulation d'(^3H)-IP % du taux basal. CHO (CaSR) (CaSR de rat): une forte accumulation; activity at 10 µM (CaSR de rat): 383 ± 39%
COc1cccc([C@@H](C)NCC(NS(=O)(=O)c2ccc(C)cc2)c2ccccc2)c1 (stereo partly drawn) [PHD 178 B] | 22 ± 10% | 
COc1ccc(S(=O)(=O)NCCNC(C)c2cccc3ccccc23)cc1 (stereo not drawn) [PHD 288] | 45 ± 3% | 
CC(NCC(Cc1ccccc1)NS(=O)(=O)c1ccc([N+](=O)[O-])cc1)c1cccc2ccccc12 (stereo not drawn) [PHD 124] | 27 ± 11% | 
CC(NS(=O)(=O)c1ccc2ccccc2c1)c1cccc2ccccc12 (stereo not drawn) [PHD 317] | 29 ± 13% | 
COc1ccc(S(=O)(=O)NC(CCc2ccccc2)CNC(C)c2cccc3ccccc23)cc1 (stereo not drawn) [PHD 218] | 39 ± 1% | 
COc1ccc(S(=O)(=O)NC(CNC(C)c2cccc3ccccc23)Cc2ccccc2OC)cc1 (stereo not drawn) [PHD 230] | 65 ± 2% | 
